Experimental data reported in article PMC4240039, “Interactions of ABCG2 (BCRP) with epidermal growth factor receptor kinase inhibitors developed for molecular imaging” (Frontiers in Pharmacology, 2014).

Experiments:
MDCK-CT cells = assay: MTT cell proliferation assay, vector control cells; type: cell-based, canine; settings: Canis lupus familiaris, 72 h, read-out: IC50 for inhibition of control cell proliferation
Method: (§1) Madin-Darbey canine kidney (MDCK) cells transfected with pcDNA empty vector (MDCK-pcDNA3; MDCK-CT) and cDNA coding for wild-type BCRP (MDCK-BCRP) cells were a generous gift from Prof. Qingcheng Mao (University of Washington, Seattle, WA, USA). The human lung carcinoma cell lines A549 and HCC827 cells were provided by Prof. Eyal Mishani.
Madin-Darbey canine kidney vector (MDCK-pcDNA3) and MDCK-BCRP cells were grown in Eagle’s minimum essential medium (MEM) supplemented with 10% fetal bovine serum, 2 mM L-glutamine, 100 units/mL penicillin, and 100 μg/mL streptomycin, at 37∘C and 5% CO2-humidified incubator. The BCRP positive cells were selected by supplementation of 0.05 mg/mL gentamicin to the growth medium. […] The cells were treated as described above.
Briefly, Cells were seeded at density of 80 × 10^3 cells per well in 24 well plates. […] Then, the medium was removed and 300 μl of 0.5 mg/mL MTT solution in Hank’s Balanced Salt Solution (HBSS) was added to each well. After 2 h incubation at 37∘C, the MTT solution was removed and the cells were washed three times with HBSS, then the culture plates were incubated with 500 μl dimethyl sulphoxide (DMSO) for 15 min at room temperature. The absorption was detected at 540 nm using the Synergy plate reader. The proliferation of cells from MTT studies was expressed as a percent of control, DMSO-treated cells of the same type. An inhibitory sigmoidal model was fitted to the experimental data using Phoenix WinNonlin 6.3 (Pharsight, Mountain View, CA, USA).

human BCRP ATPase = biological target: T1, human BCRP ATPase (Homo sapiens, UniProt Q9UNQ0); assay: BCRP ATPase activation assay ([…] kit, Sf9 membrane preparations); type: biochemical; settings: for Activation of BCRP ATPase: 400 nM (submicromolar), Sf9 membranes containing BCRP, vanadate-sensitive ATPase activity; for BCRP ATPase activation relative to that produced by gefitinib: 400 nM, Sf9 membranes
T1 construct: purchased SOLVO Biotechnology, Szeged, Hungary; host or cells: Sf9 membrane preparations
T1 sequence (Q9UNQ0 1-655): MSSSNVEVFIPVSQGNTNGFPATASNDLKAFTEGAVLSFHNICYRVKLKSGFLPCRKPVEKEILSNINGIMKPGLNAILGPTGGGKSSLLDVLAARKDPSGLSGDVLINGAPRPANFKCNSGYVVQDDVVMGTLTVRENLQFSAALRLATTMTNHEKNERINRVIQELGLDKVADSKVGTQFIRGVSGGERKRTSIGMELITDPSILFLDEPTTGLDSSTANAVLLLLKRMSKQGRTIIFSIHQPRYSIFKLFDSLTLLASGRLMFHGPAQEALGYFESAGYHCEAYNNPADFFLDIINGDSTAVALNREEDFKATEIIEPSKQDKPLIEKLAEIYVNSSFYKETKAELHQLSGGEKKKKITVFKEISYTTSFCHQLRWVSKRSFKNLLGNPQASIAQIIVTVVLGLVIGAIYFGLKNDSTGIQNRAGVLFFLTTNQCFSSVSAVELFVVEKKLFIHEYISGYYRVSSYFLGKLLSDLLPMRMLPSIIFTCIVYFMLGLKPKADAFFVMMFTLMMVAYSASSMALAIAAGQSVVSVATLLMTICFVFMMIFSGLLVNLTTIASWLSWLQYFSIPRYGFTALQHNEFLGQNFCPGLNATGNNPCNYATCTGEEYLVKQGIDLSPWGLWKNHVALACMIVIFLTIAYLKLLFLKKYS
Method: ATPase activity was evaluated using […] kits (SOLVO Biotechnology, Szeged, Hungary), according to the manufacturer’s instructions.
FIGURE 2 Interactions of EGFRIs with BCRP ATPase. (A) Activation of BCRP-ATPase in Sf9 membrane preparations containing BCRP. Membranes were incubated with ATP and the tested compounds at 400 nM in the presence and absence of sodium orthovanadate. (B) Inhibition of sulfasalazine-stimulated BCRP-ATPase. The effect of EGFRIs was evaluated in sulfasalazine (10 μM)-stimulated membranes. Data are presented as means ± SD of the vanadate-sensitive ATPase activity from two experiments in duplicates.

[1] = MTT cell proliferation assay, BCRP-overexpressing cells; type: cell-based, canine; settings: dog, MDCK-BCRP cells (MDCK cells transfected with wild-type BCRP), read-out: IC50 for inhibition of cell proliferation in MDCK-BCRP cells
Method: as §1
Madin-Darbey canine kidney vector (MDCK-pcDNA3) and MDCK-BCRP cells were grown in Eagle’s minimum essential medium (MEM) supplemented with 10% fetal bovine serum, 2 mM L-glutamine, 100 units/mL penicillin, and 100 μg/mL streptomycin, at 37∘C and 5% CO2-humidified incubator. The BCRP positive cells were selected by supplementation of 0.05 mg/mL gentamicin to the growth medium. The adherent cells, continuously cultivated in 10 cm^2 cell culture plates, were grown to nearly 80–90% confluence before they were harvested by trypsin-EDTA 0.25% solution. A549 were grown in Ham’s F12 growth medium and HCC827 were grown in RPMI-1640 growth medium. The cells were treated as described above.
The assay was performed as described earlier ([Rajendra et al., 2003]) with minor modifications. Briefly, Cells were seeded at density of 80 × 10^3 cells per well in 24 well plates. On the following day, the cells were incubated (in hexaplicates) with 0.2–102.4 μM of the tested EGFRIs or with the vehicle in the growth medium for 72 h. Then, the medium was removed and 300 μl of 0.5 mg/mL MTT solution in Hank’s Balanced Salt Solution (HBSS) was added to each well. After 2 h incubation at 37∘C, the MTT solution was removed and the cells were washed three times with HBSS, then the culture plates were incubated with 500 μl dimethyl sulphoxide (DMSO) for 15 min at room temperature. The absorption was detected at 540 nm using the Synergy plate reader. The proliferation of cells from MTT studies was expressed as a percent of control, DMSO-treated cells of the same type. An inhibitory sigmoidal model was fitted to the experimental data using Phoenix WinNonlin 6.3 (Pharsight, Mountain View, CA, USA).

[2] = design: method as in Dissoki et al., 2007; settings: ref Dissoki et al., 2007; cited from earlier work
EGFR = system: EGFR; design: method as in earlier work; settings: A431 cell lysates; ref Shaul et al., 2004; Mishani et al., 2005; Dissoki et al., 2007; read-out: EGFR binding potency IC50; cited from earlier work
P-gp = system: P-gp; design: method as in Abourbeh et al., 2007; settings: ref Abourbeh et al., 2007; cited from earlier work
BCRP = biological target: T2, BCRP (Homo sapiens, UniProt Q9UNQ0); assay: BODIPY-prazosin accumulation assay in MDCK-BCRP cells; type: cell-based; settings: 500 nM BODIPY-prazosin, 1 h incubation; test compounds 400 nM
T2 construct: expressed in transfected cells; host or cells: MDCK (MDCKII) cells, pcDNA3 vector; gift from Prof; Qingcheng Mao
T2 sequence (Q9UNQ0 1-655): T1 sequence (Q9UNQ0 1-655)
Method: Accumulation assays with fluorescent substrates of eﬄux transporter are commonly utilized to determine the inhibitory effect of a test compound ([Brouwer et al., 2013]). In this study, MDCK-CT and MDCK-BCRP cells were seeded at density of 20 × 10^4 cells/well in 24 well plates. Experiments were performed two days after achieving 100% confluent monolayers. Prior to the experiment, the medium was removed and cells were incubated for 1 h with one of the test compounds dissolved in DMEM with 5 mM 4-(2-Hydroxyethyl)-1-piperazineethanesulfonic acid (HEPES), pH 7.4. In the accumulation phase cells were co-incubated with 500 nM BODIPY-prazosin (a BCRP/P-gp substrate; [Dey et al., 1997]; [Ni et al., 2010]) and one of the test compounds dissolved in DMEM with 5 mM HEPES. After 1 h, the cells were washed three times with ice-cold PBS. Intracellular fluorescence intensity of BODIPY-prazosin was measured within 1 h by a plate reader (Synergy HT, BioTek, Winooski, VT, USA) with excitation wavelength 485 nm and emission wavelength 528 nm.
FIGURE 4 Effect of EGFRIs on BODIPY-prazosin accumulation. Cell protein concentration-normalized BODIPY prazosin fluorescence in MDCK-BCRP cells were evaluated in the presence and the absence of 400 nM of the tested compounds following 1 h incubation.

## COCC(=O)Nc1ccc2ncnc(Nc3cccc(Br)c3)c2c1 [methoxy-Br-ML03, N-{4-[(3-Bromo-phenyl)amino]-quinazoline-6-yl}-2-methoxyacetamide]
MDCK-CT cells
  IC50: 1800 ± 1200 nM
Human BCRP ATPase
  Activation of BCRP ATPase: activated BCRP ATPase
[1]
  IC50 at 72 h: > 50000 nM

## O=C(CCl)Nc1cc2c(Nc3cc(Cl)c(Cl)cc3F)ncnc2cc1OCCOCCOCCOCCOCCOCCF [PEG6-ML05]
MDCK-CT cells
  IC50: 2800 ± 3100 nM
Human BCRP ATPase
  Activation of BCRP ATPase: no activating effect
[1]
  IC50 at 72 h: > 50000 nM
[2]
  Log P: 4.75
EGFR
  IC50: 30 to 45 nM

## COCC(=O)Nc1ccc2ncnc(Nc3cc(Cl)c(Cl)cc3F)c2c1 [methoxy-ML03]
Human BCRP ATPase
  Activation of BCRP ATPase: activated BCRP ATPase
EGFR
  IC50: 252 nM

## O=C(/C=C/CN(CCO)CCO)Nc1cc2c(Nc3cc(Cl)c(Cl)cc3F)ncnc2cc1OCCOCCOCCOCCF [ML10]
Human BCRP ATPase
  Activation of BCRP ATPase: no activating effect

## CN(C)C/C=C/C(=O)Nc1ccc2ncnc(Nc3cc(Cl)c(Cl)cc3F)c2c1 [ML04]
MDCK-CT cells
  IC50: 2100 ± 600 nM
Human BCRP ATPase
  Activation of BCRP ATPase: activated BCRP ATPase
[1]
  IC50 at 72 h: > 50000 nM
[2]
  Log P: 3.9
P-gp
  P-gp substrate status: found to be a P-gp substrate

## CN(C)C/C=C/C(=O)Nc1ccc2ncnc(Nc3cccc(I)c3)c2c1 [ML06]
MDCK-CT cells
  IC50: 2200 ± 700 nM
Human BCRP ATPase
  Activation of BCRP ATPase: activated BCRP ATPase
  BCRP ATPase activation relative to that produced by gefitinib: ≤ 40%
[1]
  IC50 at 72 h: > 50000 nM
EGFR
  IC50: 0.05 to 5 nM

## COc1ccc2c3c([nH]c2c1)[C@H](C=C(C)C)N1C(=O)[C@@H]2CCCN2C(=O)[C@@H]1C3 [FTC, fumitremorgin C]
BCRP
  BODIPY-prazosin accumulation in MDCK-BCRP cells: significantly (p < 0.01) enhanced

## O=C(CCl)Nc1ccc2ncnc(Nc3cc(Cl)c(Cl)cc3F)c2c1 [ML05]
Human BCRP ATPase
  Activation of BCRP ATPase: activated BCRP ATPase
  BCRP ATPase activation relative to that produced by gefitinib: ≤ 40%
[2]
  Log P: 4.12
EGFR
  IC50: 10 nM
